Experimental data from patent US20200024285A1, “NOVEL CHROMONE OXIME DERIVATIVE AND ITS USE AS ALLOSTERIC MODULATOR OF METABOTROPIC GLUTAMATE RECEPTORS” (Prexton Therapeutics SA, priority 2014, published 2020).
Read-outs that look alike come from different tables or passages of the source.

Tests used:
solubility in water = type: physicochemical; settings: as hydrochloride salt
[1] = in vivo pharmacokinetics in male Sprague-Dawley rats, plasma and brain; settings: rat; for Kp at 1.5 h: brain, T = 1.5 h, read-out: Brain/Plasma ratio (T = 1.5 h); for Kp at 1.5 h / AUC(0-inf): po
Method: PXT002331 and PXT001858 were administered per os (p.o.) at 10 mg/kg to male Sprague-Dawley rats. Volume of administration was 10 ml/kg. In parallel, PXT002331 was also administered intravenously (i.v.) at 1 mg/kg, with a volume of administration of 2 ml/kg. Blood samples (200 μl) were collected at time ranging from 15 minutes to 24 hours for the p.o. administration and from 5 minutes to 24 hours for the i.v. administration in ice-cold tubes containing 0.2% K2EDTA. Tubes were centrifuged at 10,000 rpm for 5 minutes at 4° C. The plasma (supernatant) was separated in another tube and stored at −80° C. until analysis. Two groups of 3 animals were used for each route of administration: in one group, blood samples were collected to determine the kinetics of plasma exposure over a 24-hour period, and in the second group, blood and brain were collected at one terminal time point (0.5, 1.0, 1.5, 2.0, 4.0 hours) to determine the kinetics of brain exposure and brain/plasma ratio.
The respective parent compound (free base) was analysed in plasma samples and in brain homogenate using a LC-MS/MS method. Concentrations are expressed in ng/ml of plasma or in ng/g of brain tissue.
(§1) Despite their similar oral absorption, PXT002331 has a higher brain/plasma ratio (6.5 versus 2.0 at T=1.5 h; see FIG. 4) leading to a 3-fold improvement in the brain AUC when compared to PXT001858. A posteriori, one potential hypothesis might rely on the difference of phase II conjugation in the intestine and liver during oral absorption. […] Nonetheless, this difference observed in vitro cannot by itself explain the unexpected advantageous PK results obtained with PXT002331. The results obtained in these experiments are furthermore summarized in Tables 1 to 3 below and in FIGS. 1 to 4.

plasma protein binding = type: in vitro ADME; settings: read-out: plasma protein binding, free fraction
human mGluR4 = human mGluR4 (Homo sapiens, UniProt Q14833); experiment: calcium assay for agonistic and/or positive allosteric modulator activity on human mGluR4; type: cell-based
Method: The compound of formula (I) according to the invention (i.e., PXT002331) was tested for its agonistic and/or positive allosteric modulator activity on human mGluR4 using the calcium assay described in Example 171 of WO 2011/051478.

[2] = system: MPTP macaque model of Parkinson's disease; experiment: MPTP macaque model of Parkinson's disease; type: in vivo, Macaca fascicularis
Method: FIGS. 5A-F: Evaluation of the anti-parkinsonian efficacy of PXT002331 in the 1-methyl-4-phenyl-1,2,3,6-tetrahydropyridine (MPTP) macaque model of Parkinson's disease (see Example 3). (A) PXT002331 as a stand-alone treatment; oral administration twice a day during 4 days, assessment of parkinsonian scores at day 4; data are mean+s.e.m. over 2 hours observation (n=7 per group; 1 of the 8 monkeys initially used was excluded); “Veh”=vehicle; “LD opt”=L-dopa optimal dose”; *=P<0.05 vs Veh; ***=P<0.001 vs Veh; statistical analysis: Friedman followed by Dunn's. (B) Combined treatment using PXT002331 (25 mg/kg)+low dose of L-dopa (4-9 mg/kg)−parkinsonism time course; oral administration twice a day during 4 days, assessment at day #4; L-dopa optimal dose (“LDopt”): >20 mg/kg; L-dopa suboptimal dose (“LDso”): 4-9 mg/kg; combined administration of L-dopa (suboptimal dose) and PXT002331: twice a day/4 days. […] (D) Combined treatment using PXT002331+low dose of L-dopa−dose-response evaluation for different doses of PXT002331; assessment of parkinsonian scores at day 4; “Veh”=vehicle; “low LD”=low dose of L-dopa; “LD opt”=optimal dose of L-dopa; *=P<0.05 vs low LD; statistical analysis: non-parametric one-way repeated, measures ANOVA (Friedman's test), followed by Dunn's multiple comparison; N=7. (E) Computerized locomotor activity in early-stage PD monkey model for PXT002331 in combination with L-dopa (low dose or optimal dose) upon oral administration; *=P<0.05 vs vehicle; **=P<0.01 vs vehicle; ***=P<0.001 vs vehicle; statistical analysis: Friedman followed by Dunnett's; N=5 (6 monkeys/1 excluded). (F) Combined treatment using PXT002331+optimal dose of L-dopa−disability score and dyskinesia score. The anti-parkinsonian efficacy of the compound of formula (I) according to the present invention (i.e., PXT002331) was evaluated in the 1-methyl-4-phenyl-1,2,3,6-tetrahydropyridine (MPTP) macaque model of Parkinson's disease (using macaques of the species Macaca fascicularis), which reproduces most of the clinical and pathological hallmarks of Parkinson's disease and is considered a “gold standard” (see Porras G et al., Cold Spring Harb Perspect Med., 2(3):a009308, 2012 and references cited therein for a general description of the MPTP model). […] In this experiment, PXT002331 was orally administered twice a day during a period of 4 days, and the parkinsonian score was assessed at day 4 over 2 hours of observation (data are mean values+standard error of the mean (s.e.m.); n=7 monkeys per group). The anti-parkinsonian efficacy of PXT002331 (25 mg/kg) was further evaluated in combination with low (suboptimal) doses of L-dopa (levodopa; 4-9 mg/kg) (see FIGS. 5B and 5C). Doses were orally administered twice a day during 4 days, and assessment of parkinsonian scores took place at day 4 (between 1 and 2 h after L-dopa administration, i.e., between 2 and 3 h after PXT002331 administration). […] The results of a dose-response evaluation of the combination of PXT002331 (at doses from 2 mg/kg to 100 mg/kg) with L-dopa (low dose) are shown in FIG. 5D (the assessment of parkinsonian scores took place at day 4). […] In this experiment, each monkey was equipped with a detector of movements and signals were collected with 24 light beams and a video track recorder in order to descriminate all types of movements. The locomotor activity was measured during 1 hour.

[3] = system: UGT (UDP-Glucuronosyl transferase); experiment: in vitro glucuronidation in rat liver microsomes; type: in vitro ADME; settings: in vitro in the presence of UGT
Method: as §1

[4] = phase I metabolic stability, CL (r); type: in vitro ADME; settings: rat
Method: (§2) The in vitro ADME profile of PXT002331 was also very similar with reference to phase I metabolic stability: CL (h/r): 55/101 μl/min/mg protein and intestinal absorption: CaCo-2 (A-B, pgp): 4.11.0.10-6 cm/s, no efflux.

[5] = phase I metabolic stability, CL (h); type: in vitro ADME; settings: human
Method: as §2

CaCo-2 = experiment: intestinal absorption CaCo-2 (A-B, pgp); type: in vitro ADME
Method: as §2

[6] = male, Sprague-Dawley, 10 mg/kg p.o.
[7] = male, Sprague-Dawley, plasma, 10 mg/kg p.o.

human mGluR4, sequence (Q14833 33-912): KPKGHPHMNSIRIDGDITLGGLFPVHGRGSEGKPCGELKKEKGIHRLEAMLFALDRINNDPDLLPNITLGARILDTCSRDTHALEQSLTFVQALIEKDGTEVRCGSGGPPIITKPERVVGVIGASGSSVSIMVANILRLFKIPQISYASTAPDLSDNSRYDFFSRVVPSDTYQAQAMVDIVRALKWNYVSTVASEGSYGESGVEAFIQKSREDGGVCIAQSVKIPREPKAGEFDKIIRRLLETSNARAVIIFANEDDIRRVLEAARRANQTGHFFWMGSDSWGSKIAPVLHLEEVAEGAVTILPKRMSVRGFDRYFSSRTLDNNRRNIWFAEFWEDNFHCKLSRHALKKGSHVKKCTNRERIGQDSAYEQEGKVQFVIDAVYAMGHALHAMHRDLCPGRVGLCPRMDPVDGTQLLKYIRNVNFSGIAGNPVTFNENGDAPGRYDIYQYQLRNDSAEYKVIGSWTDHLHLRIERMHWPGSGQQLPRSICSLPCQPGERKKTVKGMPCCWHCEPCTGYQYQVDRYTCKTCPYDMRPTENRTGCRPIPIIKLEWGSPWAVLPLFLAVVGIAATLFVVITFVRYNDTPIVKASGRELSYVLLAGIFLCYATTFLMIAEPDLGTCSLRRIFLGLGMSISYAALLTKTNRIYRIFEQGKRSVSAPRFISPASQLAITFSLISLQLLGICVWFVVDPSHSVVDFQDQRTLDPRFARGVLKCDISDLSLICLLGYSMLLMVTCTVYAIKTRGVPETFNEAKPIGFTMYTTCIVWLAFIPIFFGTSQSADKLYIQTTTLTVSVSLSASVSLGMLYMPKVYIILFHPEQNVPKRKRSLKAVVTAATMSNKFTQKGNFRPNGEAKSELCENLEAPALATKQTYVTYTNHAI

O/N=c1\cc(-c2cc3sccc3cn2)oc2ccc(OCCN3CCOCC3)cc12 [PXT001858, reference compound]
solubility (solubility in water): > 10000 µg/mL | Kp at 1.5 h [1, 6]: 2 | AUC(0-inf) [1, 7]: 394 ng·h/mL | Brain AUC inf ([1]; 10 mg/kg p.o.): 838 ng·h/g | Cmax (Brain) ([1]; 10 mg/kg p.o.): 521 ng/G tissue | fraction unbound (plasma protein binding): < 0.01 | EC50 (human mGluR4; read-out: pEC50 on human mGluR4 (converted)): 36.3 nM

ON=c1cc(-c2cc3sccc3cn2)oc2ccc(CCCN3CCOCC3)cc12 [PXT002331, 6-(3-morpholin-4-yl-propyl)-2-(thieno[3,2-c]pyridin-6-yl)-4H-chromen-4-one oxime]
parkinsonian score, combined with suboptimal dose of L-dopa vs L-dopa (suboptimal dose) alone ([2]; 25 mg/kg p.o. + L-dopa 4-9 mg/kg, twice a day 4 days, day 4): considerable improvement in parkinsonian score | locomotor activity in combination with low or optimal dose of L-dopa ([2]; 25 mg/kg p.o., early stage PD monkey model, measured during 1 hour): significant improvement in locomotor activity | induction of dyskinesia in combination with L-dopa (optimal dose) ([2]; 25 to 100 mg/kg): without inducing dyskinesia | disability score in combination with L-dopa (optimal dose) ([2]; increasing doses, 25 to 100 mg/kg): improvement in the disability score | anti-parkinsonian activity (parkinsonian score), stand-alone treatment ([2]; p.o. twice a day for 4 days, score at day 4 over 2 h): potent anti-parkinsonian activity | solubility (solubility in water): > 10000 µg/mL | level of glucuronidation compared to PXT001858 [3]: much lower level of glucuronidation | microsomal CLint [4]: 101 µL/min/mg | Kp at 1.5 h [1, 6]: 6.5 | bioavailability ([1]; male, Sprague-Dawley, plasma, oral, 10 mg/kg p.o. vs 1 mg/kg i.v.): 39% | AUC(0-inf) [1, 7]: 432 ng·h/mL | Brain AUC inf ([1]; 10 mg/kg p.o.): 2713 ng·h/g | Cmax (Brain) ([1]; 10 mg/kg p.o.): 818 ng/G tissue | improvement in brain AUC compared to PXT001858 ([1]; 10 mg/kg p.o.): 3 fold | plasma Cmax relative to PXT001858 ([1]; 10 mg/kg p.o.): 0.7 fold | plasma exposure AUC relative to PXT001858 ([1]; 10 mg/kg p.o.): 1.1 fold | fraction unbound (plasma protein binding): < 0.01 | microsomal CLint [5]: 55 µL/min/mg | CaCo-2 efflux (pgp) (CaCo-2): no efflux | EC50 (human mGluR4; read-out: EC50 corresponding to pEC50 (converted)): ~76 nM
